How the values were obtained:
Test in all cases: relative viability vs DMSO control (72 h) (fraction); higher = more viable cells
SYO-1 = system: SYO-1
Outline: (§1)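 Sarcoma cell lines in 384-well plates, seeded to reach 80–90% confluence, were given compound after 24 h and kept 72 h at 37 °C, 5% CO2, with 0.1% DMSO vehicle and a 5 µM positive control. Relative viability came from ATPLite as percent growth, averaged over up to triplicate wells. On the rescaled values, 1 equals full and 0 equals none.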

HT1080 = system: HT1080
Outline: as §1

KHOS-NP = system: KHOS-NP
Outline: as §1

VA-ES-BJ = system: VA-ES-BJ
Outline: as §1

SK-LMS-1 = system: SK-LMS-1
Outline: as §1

A204 = system: A204
Outline: as §1

HS729 = system: HS729
Outline: as §1

SW684 = system: SW684
Outline: as §1

SW872 = system: SW872
Outline: as §1

SW1353 = system: SW1353
Outline: as §1

MES-SA = system: MES-SA
Outline: as §1

G401 = system: G401
Outline: as §1

CO[C@@H]1[C@H](N(C)C(=O)c2ccccc2)C[C@H]2O[C@]1(C)n1c3ccccc3c3c4c(c5c6ccccc6n2c5c31)C(=O)NC4 [Midostaurin]
Conditions | relative viability
A204, 0.00017 µM | 1.04
A204, 0.00051 µM | 1.03
A204, 0.00152 µM | 1.02
A204, 0.00457 µM | 0.997
A204, 0.01372 µM | 1.01
A204, 0.04115 µM | 0.961
A204, 0.1235 µM | 0.792
A204, 0.3704 µM | 0.485
A204, 1.111 µM | 0.263
A204, 3.333 µM | 0.192
A204, 10 µM | 0.157
G401, 0.00017 µM | 0.948
G401, 0.00051 µM | 0.976
G401, 0.00152 µM | 0.98
G401, 0.00457 µM | 0.969
G401, 0.01372 µM | 0.953
G401, 0.04115 µM | 0.878
G401, 0.1235 µM | 0.854
G401, 0.3704 µM | 0.678
G401, 1.111 µM | 0.436
G401, 3.333 µM | 0.229
G401, 10 µM | 0.159
HS729, 0.00017 µM | 0.927
HS729, 0.00051 µM | 0.913
HS729, 0.00152 µM | 0.914
HS729, 0.00457 µM | 0.921
HS729, 0.01372 µM | 0.874
HS729, 0.04115 µM | 0.828
HS729, 0.1235 µM | 0.791
HS729, 0.3704 µM | 0.684
HS729, 1.111 µM | 0.368
HS729, 3.333 µM | 0.269
HS729, 10 µM | 0.273
HT1080, 0.00017 µM | 1.01
HT1080, 0.00051 µM | 0.999
HT1080, 0.00152 µM | 1.007
HT1080, 0.00457 µM | 0.986
HT1080, 0.01372 µM | 1.04
HT1080, 0.04115 µM | 0.987
HT1080, 0.1235 µM | 0.9478
HT1080, 0.3704 µM | 0.716
HT1080, 1.111 µM | 0.406
HT1080, 3.333 µM | 0.31
HT1080, 10 µM | 0.288
KHOS-NP, 0.00017 µM | 1.04
KHOS-NP, 0.00051 µM | 1.04
KHOS-NP, 0.00152 µM | 1.04
KHOS-NP, 0.00457 µM | 1.038
KHOS-NP, 0.01372 µM | 1.02
KHOS-NP, 0.04115 µM | 1.02
KHOS-NP, 0.1235 µM | 0.987
KHOS-NP, 0.3704 µM | 0.893
KHOS-NP, 1.111 µM | 0.39
KHOS-NP, 3.333 µM | 0.257
KHOS-NP, 10 µM | 0.271
MES-SA, 0.00017 µM | 0.87
MES-SA, 0.00051 µM | 0.8799
MES-SA, 0.00152 µM | 0.889
MES-SA, 0.00457 µM | 0.885
MES-SA, 0.01372 µM | 0.891
MES-SA, 0.04115 µM | 0.866
MES-SA, 0.1235 µM | 0.818
MES-SA, 0.3704 µM | 0.408
MES-SA, 1.111 µM | 0.251
MES-SA, 3.333 µM | 0.139
MES-SA, 10 µM | 0.0904
SK-LMS-1, 0.00017 µM | 0.981
SK-LMS-1, 0.00051 µM | 0.972
SK-LMS-1, 0.00152 µM | 0.987
SK-LMS-1, 0.00457 µM | 1.02
SK-LMS-1, 0.01372 µM | 1.02
SK-LMS-1, 0.04115 µM | 0.946
SK-LMS-1, 0.1235 µM | 0.793
SK-LMS-1, 0.3704 µM | 0.564
SK-LMS-1, 1.111 µM | 0.392
SK-LMS-1, 3.333 µM | 0.36
SK-LMS-1, 10 µM | 0.364
SW684, 0.00017 µM | 1.08
SW684, 0.00051 µM | 1.05
SW684, 0.00152 µM | 1.05
SW684, 0.00457 µM | 1.02
SW684, 0.01372 µM | 1.04
SW684, 0.04115 µM | 1.05
SW684, 0.1235 µM | 1.08
SW684, 0.3704 µM | 0.863
SW684, 1.111 µM | 0.524
SW684, 3.333 µM | 0.406
SW684, 10 µM | 0.363
SW872, 0.00017 µM | 0.976
SW872, 0.00051 µM | 1
SW872, 0.00152 µM | 0.965
SW872, 0.00457 µM | 0.958
SW872, 0.01372 µM | 0.945
SW872, 0.04115 µM | 0.896
SW872, 0.1235 µM | 0.826
SW872, 0.3704 µM | 0.592
SW872, 1.111 µM | 0.399
SW872, 3.333 µM | 0.253
SW872, 10 µM | 0.219
SW1353, 0.00017 µM | 0.918
SW1353, 0.00051 µM | 0.927
SW1353, 0.00152 µM | 0.9048
SW1353, 0.00457 µM | 0.916
SW1353, 0.01372 µM | 0.883
SW1353, 0.04115 µM | 0.879
SW1353, 0.1235 µM | 0.712
SW1353, 0.3704 µM | 0.411
SW1353, 1.111 µM | 0.272
SW1353, 3.333 µM | 0.229
SW1353, 10 µM | 0.218
SYO-1, 0.00017 µM | 0.955
SYO-1, 0.00051 µM | 0.946
SYO-1, 0.00152 µM | 0.941
SYO-1, 0.00457 µM | 0.92
SYO-1, 0.01372 µM | 0.833
SYO-1, 0.04115 µM | 0.755
SYO-1, 0.1235 µM | 0.676
SYO-1, 0.3704 µM | 0.294
SYO-1, 1.111 µM | 0.0535
SYO-1, 3.333 µM | 0.0115
SYO-1, 10 µM | 0.00107
VA-ES-BJ, 0.00017 µM | 0.978
VA-ES-BJ, 0.00051 µM | 0.943
VA-ES-BJ, 0.00152 µM | 0.974
VA-ES-BJ, 0.00457 µM | 0.978
VA-ES-BJ, 0.01372 µM | 0.958
VA-ES-BJ, 0.04115 µM | 0.945
VA-ES-BJ, 0.1235 µM | 0.917
VA-ES-BJ, 0.3704 µM | 0.668
VA-ES-BJ, 1.111 µM | 0.372
VA-ES-BJ, 3.333 µM | 0.269
VA-ES-BJ, 10 µM | 0.181
